Results: the CheMixHub ionic liquid set

Experiment: xn = mol fraction of the nth substance listed
Settings: 100 kPa

OC[C@H]1O[C@H](O[C@H]2[C@H](O)[C@@H](O)C(O)O[C@@H]2CO)[C@H](O)[C@@H](O)[C@@H]1O (stereo partly drawn) + CCCC[n+]1ccn(C)c1.F[P-](F)(F)(F)(F)F + O
viscosity [mPa·s]
Settings | 303.15 K | 308.15 K | 313.15 K
x2 = 0, x1 = 0.0001791 | – | 0.721 | 0.657
x2 = 0, x1 = 0.0005383 | – | 0.733 | 0.667
x2 = 0, x1 = 0.0008971 | – | 0.742 | 0.675
x2 = 0, x1 = 0.001255 | – | 0.747 | 0.68
x2 = 0, x1 = 0.001615 | – | 0.755 | 0.686
x2 = 0.0001835, x1 = 0.001259 | – | 0.775 | 0.69
x2 = 0.0001835, x1 = 0.00162 | – | 0.782 | 0.696
x2 = 0.0001836, x1 = 0.0008988 | – | 0.768 | 0.684
x2 = 0.0001837, x1 = 0.0001798 | – | 0.751 | 0.667
x2 = 0.0001837, x1 = 0.0005398 | – | 0.76 | 0.676
x2 = 0.0005376, x1 = 0.001627 | – | 0.783 | 0.709
x2 = 0.0005378, x1 = 0.001265 | – | 0.776 | 0.702
x2 = 0.000538, x1 = 0.0009039 | 0.856 | 0.769 | 0.695
x2 = 0.0005382, x1 = 0.0005419 | 0.846 | 0.76 | 0.688
x2 = 0.0005384, x1 = 0.0001809 | 0.837 | 0.752 | 0.68
x2 = 0.0008951, x1 = 0.001637 | 0.878 | 0.792 | 0.713
x2 = 0.0008955, x1 = 0.001273 | 0.869 | 0.784 | 0.707
x2 = 0.0008958, x1 = 0.0009101 | 0.861 | 0.778 | 0.701
x2 = 0.0008961, x1 = 0.0005458 | 0.851 | 0.768 | 0.693
x2 = 0.0008964, x1 = 0.0001816 | 0.842 | 0.761 | 0.685
x2 = 0.00126, x1 = 0.0009162 | 0.876 | 0.79 | 0.708
x2 = 0.00126, x1 = 0.001282 | 0.883 | 0.797 | 0.714
x2 = 0.00126, x1 = 0.001648 | 0.893 | 0.804 | 0.721
x2 = 0.001261, x1 = 0.000183 | 0.858 | 0.774 | 0.693
x2 = 0.001261, x1 = 0.0005491 | 0.866 | 0.781 | 0.7
